From patent US5122381A, “Composition and process for dissolving a sparingly water-soluble flavonoid” (San-Ei Chemical Industries, Ltd., priority 1989, dated 1992)

Assays:
[1] = Dissolution of Rutin: precipitation observed on standing with Glycoside I; format: physicochemical; design: key: ++: indicating the greatest degree of precipitation; +: precipitation was observed; -: indicating no observed precipitation; details: 0.04 wt % rutin
Procedure: (§1) Water (100 ml) containing 12 W/V% of granulated sugar and 0.3 W/V% of citric acid was poured into each of five test tubes (100 ml) No. 1 to 5, to which 0.4 ml of rutin (10 W/V%) solution in ethanol (equivalent to 0.04 g of rutin) was added. Immediately thereafter, mixed was a solution of the Glycoside I (13.4 W/V%) in ethanol in amounts of 0.024 ml, 0.032 ml, 0.04 ml and 0.05 ml respectively to the test tubes No. 2 to 5. These amounts were equivalent to 8.0 wt. %, 10.8 wt. %, 13.5 wt. % and 16.0 wt. %, respectively relative to the amount of rutin.
(§2) All of these mixtures including No. 1 to which the Glycoside I had not been added were transparent when observed immediately after mixing. After standing for 24 hours, some mixtures were recognized to have precipitation. Standing was continued for 14 days at room temperature in observing precipitation states of the mixtures. On completion of this standing, rutin concentration of each supernatant liquid of the mixtures was measured using high-speed liquid chromatography.
The "+" and "-" signs in Table 1 denote comparative amounts of precipitation of the rutin. The range extends from "++", indicating the greatest degree of precipitation, down to "-", indicating no observed precipitation.

[2] = Dissolution of Rutin: rutin remaining in solution (supernatant, high-speed liquid chromatography); format: physicochemical; details: 13.5 wt. % of Glycoside I relative to rutin; standing 14 days at room temperature
Procedure: as §1, §2

Precipitation Observed ([1]; No. 1, Glycoside I 0 wt % relative to rutin, 1st day): + + | Precipitation Observed ([1]; No. 1, Glycoside I 0 wt % relative to rutin, 3rd day): + + | Precipitation Observed ([1]; No. 1, Glycoside I 0 wt % relative to rutin, 6th day): + + | Precipitation Observed ([1]; No. 1, Glycoside I 0 wt % relative to rutin, 14th day): + + | Precipitation Observed ([1]; No. 2, Glycoside I 8.0 wt % relative to rutin, 1st day): + | Precipitation Observed ([1]; No. 2, Glycoside I 8.0 wt % relative to rutin, 3rd day): + | Precipitation Observed ([1]; No. 2, Glycoside I 8.0 wt % relative to rutin, 6th day): + | Precipitation Observed ([1]; No. 2, Glycoside I 8.0 wt % relative to rutin, 14th day): + | rutin stably dissolved in water [2]: at least 0.04 wt. %
SMILES: C[C@@H]1O[C@@H](OC[C@H]2O[C@@H](Oc3c(-c4ccc(O)c(O)c4)oc4cc(O)cc(O)c4c3=O)[C@H](O)[C@@H](O)[C@@H]2O)[C@H](O)[C@H](O)[C@H]1O [Rutin]
